According to ChEMBL document CHEMBL3885881, “DrugMatrix”:

Species: Rattus norvegicus
Assay: DrugMatrix - Regimen: Daily Repeat
Assay type: toxicity, organism-based, Sprague-Dawley
Design: regimen Daily Repeat, gender Male, age 6-8 weeks
Settings: in vivo, po, route oral GAVAGE, […]; for ABSOLUTE BASOPHIL / BASOPHIL / ABSOLUTE EOSINOPHIL / ABSOLUTE LYMPHOCYTE / ABSOLUTE MONOCYTE / ABSOLUTE SEGMENTED NEUTROPHIL / EOSINOPHIL / ERYTHROCYTE COUNT / HEMATOCRIT / HEMOGLOBIN / LEUKOCYTE COUNT / LYMPHOCYTE / MEAN CORPUSCULAR HEMOGLOBIN / MEAN CORPUSCULAR HEMOGLOBIN CONCENTRATION / MEAN CORPUSCULAR VOLUME / MONOCYTE / NEUTROPHIL / NUCLEATED RED BLOOD CELLS / PLATELET COUNT: tissue Blood; for ALANINE AMINOTRANSFERASE / ALBUMIN / ALKALINE PHOSPHATASE / ASPARTATE AMINOTRANSFERASE / BLOOD UREA NITROGEN / CARBON DIOXIDE / CHLORIDE / CHOLESTEROL / CREATINE PHOSPHOKINASE / CREATININE / GLUCOSE / LACTATE DEHYDROGENASE / LIPASE / PHOSPHORUS / POTASSIUM / SODIUM / TOTAL BILIRUBIN / TOTAL PROTEIN / URIC ACID: tissue Plasma
[1] = 0 mg/kg, 72 h, dose level Control, time 3 day
[2] = 0 mg/kg, 120 h, dose level Control, time 5 day
[3] = 4 mg/kg, 72 h, dose level Low, time 3 day
[4] = 4 mg/kg, 120 h, dose level Low, time 5 day
[5] = 16 mg/kg, 72 h, dose level High, time 3 day
[6] = 16 mg/kg, 120 h, dose level High, time 5 day

O=NN(CCCl)C(=O)NCCCl [CARMUSTINE]
ABSOLUTE BASOPHIL [1]: 0 CELLS/uL | BASOPHIL [1]: 0% | ABSOLUTE BASOPHIL [2]: 0 CELLS/uL | ABSOLUTE EOSINOPHIL [2]: 0 CELLS/uL | ABSOLUTE LYMPHOCYTE [2]: 10431 CELLS/uL | ABSOLUTE MONOCYTE [2]: 90.5 CELLS/uL | ABSOLUTE SEGMENTED NEUTROPHIL [2]: 1111.83 CELLS/uL | BASOPHIL [2]: 0% | EOSINOPHIL [2]: 0% | ERYTHROCYTE COUNT [2]: 5.51 x10E6/uL | HEMATOCRIT [2]: 34.67% | HEMOGLOBIN [2]: 13.5 G/DL | LEUKOCYTE COUNT [2]: 11.63 x10E3/uL | LYMPHOCYTE [2]: 89.67% | MEAN CORPUSCULAR HEMOGLOBIN [2]: 24.5 pg | MEAN CORPUSCULAR HEMOGLOBIN CONCENTRATION [2]: 38.95 G/DL | MEAN CORPUSCULAR VOLUME [2]: 62.87 fL | MONOCYTE [2]: 0.67% | NEUTROPHIL [2]: 9.67% | NUCLEATED RED BLOOD CELLS [2]: 0 /100WBC | PLATELET COUNT [2]: 1052.67 x10E3/uL | ALANINE AMINOTRANSFERASE [2]: 54.67 u/L | ALBUMIN [2]: 4.15 G/DL | ALKALINE PHOSPHATASE [2]: 359.83 u/L | ASPARTATE AMINOTRANSFERASE [2]: 83 u/L | BLOOD UREA NITROGEN [2]: 13.5 mg/dL | CARBON DIOXIDE [2]: 27.17 mmol/L | CHLORIDE [2]: 98.5 MEQ/L | CHOLESTEROL [2]: 66.83 mg/dL | CREATINE PHOSPHOKINASE [2]: 256.17 u/L | CREATININE [2]: 0.19 mg/dL | GLUCOSE [2]: 171.33 mg/dL | LACTATE DEHYDROGENASE [2]: 91.5 u/L | LIPASE [2]: 10.5 u/L | PHOSPHORUS [2]: 8.72 mg/dL | POTASSIUM [2]: 5.34 MEQ/L | SODIUM [2]: 142.53 MEQ/L | TOTAL BILIRUBIN [2]: 0.2 mg/dL | TOTAL PROTEIN [2]: 6.05 G/DL | URIC ACID [2]: 0.6 mg/dL | ABSOLUTE BASOPHIL [3]: 0 CELLS/uL | ABSOLUTE EOSINOPHIL [3]: 0 CELLS/uL | ABSOLUTE LYMPHOCYTE [3]: 4876.33 CELLS/uL | ABSOLUTE MONOCYTE [3]: 48 CELLS/uL | ABSOLUTE SEGMENTED NEUTROPHIL [3]: 442.33 CELLS/uL | BASOPHIL [3]: 0% | EOSINOPHIL [3]: 0% | ERYTHROCYTE COUNT [3]: 5.3 x10E6/uL | HEMATOCRIT [3]: 33.47% | HEMOGLOBIN [3]: 13.1 G/DL | LEUKOCYTE COUNT [3]: 5.37 x10E3/uL | LYMPHOCYTE [3]: 90.67% | MEAN CORPUSCULAR HEMOGLOBIN [3]: 24.7 pg | MEAN CORPUSCULAR HEMOGLOBIN CONCENTRATION [3]: 39.13 G/DL | MEAN CORPUSCULAR VOLUME [3]: 63.13 fL | MONOCYTE [3]: 1% | NEUTROPHIL [3]: 8.33% | NUCLEATED RED BLOOD CELLS [3]: 0 /100WBC | PLATELET COUNT [3]: 1176.67 x10E3/uL | ALANINE AMINOTRANSFERASE [3]: 69.33 u/L | ALBUMIN [3]: 4.2 G/DL | ALKALINE PHOSPHATASE [3]: 310 u/L | ASPARTATE AMINOTRANSFERASE [3]: 124.67 u/L | BLOOD UREA NITROGEN [3]: 8.33 mg/dL | CARBON DIOXIDE [3]: 31.67 mmol/L | CHLORIDE [3]: 102 MEQ/L | CHOLESTEROL [3]: 70 mg/dL | CREATINE PHOSPHOKINASE [3]: 196 u/L | CREATININE [3]: 0.11 mg/dL | GLUCOSE [3]: 149.33 mg/dL | LACTATE DEHYDROGENASE [3]: 75.67 u/L | LIPASE [3]: 45 u/L | PHOSPHORUS [3]: 9.8 mg/dL | POTASSIUM [3]: 5.86 MEQ/L | SODIUM [3]: 147.15 MEQ/L | TOTAL BILIRUBIN [3]: 0.2 mg/dL | TOTAL PROTEIN [3]: 5.6 G/DL | URIC ACID [3]: 0.47 mg/dL | ABSOLUTE BASOPHIL [4]: 0 CELLS/uL | ABSOLUTE EOSINOPHIL [4]: 0 CELLS/uL | ABSOLUTE LYMPHOCYTE [4]: 3763.67 CELLS/uL | ABSOLUTE MONOCYTE [4]: 27 CELLS/uL | ABSOLUTE SEGMENTED NEUTROPHIL [4]: 142.67 CELLS/uL | BASOPHIL [4]: 0% | EOSINOPHIL [4]: 0% | ERYTHROCYTE COUNT [4]: 5.76 x10E6/uL | HEMATOCRIT [4]: 35.3% | HEMOGLOBIN [4]: 13.53 G/DL | LEUKOCYTE COUNT [4]: 3.93 x10E3/uL | LYMPHOCYTE [4]: 95.67% | MEAN CORPUSCULAR HEMOGLOBIN [4]: 23.5 pg | MEAN CORPUSCULAR HEMOGLOBIN CONCENTRATION [4]: 38.33 G/DL | MEAN CORPUSCULAR VOLUME [4]: 61.27 fL | MONOCYTE [4]: 0.67% | NEUTROPHIL [4]: 3.67% | NUCLEATED RED BLOOD CELLS [4]: 0 /100WBC | PLATELET COUNT [4]: 1079.33 x10E3/uL | ALANINE AMINOTRANSFERASE [4]: 65 u/L | ALBUMIN [4]: 4.4 G/DL | ALKALINE PHOSPHATASE [4]: 287.67 u/L | ASPARTATE AMINOTRANSFERASE [4]: 91.67 u/L | BLOOD UREA NITROGEN [4]: 10 mg/dL | CARBON DIOXIDE [4]: 27.67 mmol/L | CHLORIDE [4]: 101.33 MEQ/L | CHOLESTEROL [4]: 66.67 mg/dL | CREATINE PHOSPHOKINASE [4]: 256.67 u/L | CREATININE [4]: 0.22 mg/dL | GLUCOSE [4]: 159.33 mg/dL | LACTATE DEHYDROGENASE [4]: 67.33 u/L | LIPASE [4]: 10.67 u/L | PHOSPHORUS [4]: 8.57 mg/dL | POTASSIUM [4]: 5.14 MEQ/L | SODIUM [4]: 148.03 MEQ/L | TOTAL BILIRUBIN [4]: 0.13 mg/dL | TOTAL PROTEIN [4]: 6.3 G/DL | URIC ACID [4]: 0.57 mg/dL | ABSOLUTE BASOPHIL [5]: 0 CELLS/uL | ABSOLUTE EOSINOPHIL [5]: 0 CELLS/uL | BASOPHIL [5]: 0% | EOSINOPHIL [5]: 0% | TOTAL PROTEIN [5]: 11.13 G/DL | ABSOLUTE BASOPHIL [6]: 0 CELLS/uL | ABSOLUTE EOSINOPHIL [6]: 9 CELLS/uL | ABSOLUTE LYMPHOCYTE [6]: 2345.67 CELLS/uL | ABSOLUTE MONOCYTE [6]: 24.67 CELLS/uL | ABSOLUTE SEGMENTED NEUTROPHIL [6]: 87.33 CELLS/uL | BASOPHIL [6]: 0% | EOSINOPHIL [6]: 0.33% | ERYTHROCYTE COUNT [6]: 6.17 x10E6/uL | HEMATOCRIT [6]: 38.6% | HEMOGLOBIN [6]: 14.23 G/DL | LEUKOCYTE COUNT [6]: 2.47 x10E3/uL | LYMPHOCYTE [6]: 95% | MEAN CORPUSCULAR HEMOGLOBIN [6]: 23.1 pg | MEAN CORPUSCULAR HEMOGLOBIN CONCENTRATION [6]: 36.93 G/DL | MEAN CORPUSCULAR VOLUME [6]: 62.57 fL | MONOCYTE [6]: 1% | NEUTROPHIL [6]: 3.67% | NUCLEATED RED BLOOD CELLS [6]: 0 /100WBC | PLATELET COUNT [6]: 1131 x10E3/uL | ALANINE AMINOTRANSFERASE [6]: 102 u/L | ALBUMIN [6]: 3.93 G/DL | ALKALINE PHOSPHATASE [6]: 370.33 u/L | ASPARTATE AMINOTRANSFERASE [6]: 322 u/L | BLOOD UREA NITROGEN [6]: 8.33 mg/dL | CARBON DIOXIDE [6]: 27.67 mmol/L | CHLORIDE [6]: 98 MEQ/L | CHOLESTEROL [6]: 235 mg/dL | CREATINE PHOSPHOKINASE [6]: 236.67 u/L | CREATININE [6]: 0.21 mg/dL | GLUCOSE [6]: 146 mg/dL | LACTATE DEHYDROGENASE [6]: 165.33 u/L | LIPASE [6]: 12 u/L | PHOSPHORUS [6]: 9.6 mg/dL | POTASSIUM [6]: 5.3 MEQ/L | SODIUM [6]: 146.6 MEQ/L | TOTAL BILIRUBIN [6]: 1.73 mg/dL | TOTAL PROTEIN [6]: 6.4 G/DL | URIC ACID [6]: 0.6 mg/dL
